The series has as its system ddY-SPF strain male mouse. The series can be described thus: Acute toxicity test. It counts as in vivo. The note with it: ddY-SPF strain male mouse (weight: 25 to 30 g); administered orally as 0.5% tragacanth suspension. The method, then: Acute toxicity test • Acute toxicity of 3,6-0,0' - dipivaloyl - L - ascorbic acid of this invention is shown below. • Animal: ddY-SPF strain male mouse (weight: 25 to 30 g) • Method of administration: The compound is administered orally as 0.5% tragacanth suspension. • Acute toxicity: LDso 5000 mg/kg.

On to `CC(C)(C)C(=O)OC[C@H](O)[C@H]1OC(=O)C(O)=C1OC(=O)C(C)(C)C` [3,6-0,0'-Dipivaloyl-L-ascorbic acid], for which the “Acute toxicity: LDso” value amounted to 5000 mg/kg.
